Experimental findings from PubChem BioAssay (NCI) are described below.

Test systems include A549 NSCLC; COLO 205 colon; EKVX NSCLC; MALME-3M melanoma; MCF7 breast; MOLT-4 leukemia; NCI/ADR-RES ovarian; SK-OV-3 ovarian; UACC-62 melanoma; UO-31 renal.
Common to all, as to test: NCI anticancer screen, dose series, 48 h

“And” between values parts separate entries of the source, which are not always exact repeats. Identical values can stand only once.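 Assay format: 96-well plates, 48-hour exposure. GI50 = concentration required for 50% inhibition of growth. TGI denotes the concentration required for complete inhibition of growth.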

On to `CCN(CC)CCOc1ccc(/C(=C(\Cl)c2ccccc2)c2ccccc2)cc1`, for which the GI50 with A549 NSCLC is 2.92 µM and 4.32 µM; in the assay with COLO 205 colon it was 0.859 µM and 1.36 µM; in the assay with EKVX NSCLC, 5.74 µM and 3.44 µM; in the assay with MALME-3M melanoma, 1.21 µM and 1.43 µM; in the assay on MCF7 breast, 0.307 µM and 0.577 µM; with MOLT-4 leukemia, 2.98 µM and 3.71 µM. Also, the GI50 in the assay with NCI/ADR-RES ovarian is 5.56 µM and 3.34 µM; in the assay with SK-OV-3 ovarian, 5.38 µM and 4.67 µM; in the assay on UACC-62 melanoma it was 1.04 µM and 2.15 µM; in the assay on UO-31 renal, 0.856 µM and 1.49 µM. Moreover, the TGI in the assay with A549 NSCLC was 9.57 µM and 15.3 µM; in the assay on COLO 205 colon, 1.72 µM and 2.83 µM; in the assay on EKVX NSCLC, 13 µM and 17.3 µM; with MALME-3M melanoma, 3.88 µM and 2.99 µM; with MCF7 breast, 7.55 µM and 2.99 µM; with MOLT-4 leukemia, 11.8 µM and 13.1 µM. Moreover, the TGI in the assay on NCI/ADR-RES ovarian was 12.2 µM and 14.4 µM; with SK-OV-3 ovarian, 11.5 µM and 17.2 µM; in the assay with UACC-62 melanoma, 2.33 µM and 4.88 µM; with UO-31 renal, 2.62 µM and 5.9 µM.
On to `Oc1ccc(NCc2nc3ccccc3[nH]2)cc1`, for which the GI50 in the assay on A549 NSCLC is 51.6 µM; in the assay on COLO 205 colon, 69.1 µM; in the assay on EKVX NSCLC, 46.2 µM; in the assay with MALME-3M melanoma it was 76.3 µM; with MCF7 breast it was 32.8 µM; with MOLT-4 leukemia, above 100 µM. Besides, the GI50 with NCI/ADR-RES ovarian was above 100 µM; with SK-OV-3 ovarian it was 32.1 µM; with UACC-62 melanoma it was 70.5 µM; in the assay with UO-31 renal, above 100 µM. Further, the TGI in the assay with A549 NSCLC, in the assay with COLO 205 colon, in the assay with EKVX NSCLC, with MALME-3M melanoma, with MCF7 breast and in the assay on MOLT-4 leukemia was above 100 µM throughout. Moreover, the TGI with NCI/ADR-RES ovarian, with SK-OV-3 ovarian, in the assay with UACC-62 melanoma and in the assay on UO-31 renal was above 100 µM throughout.
With `C=C1C(=O)O[C@H]2[C@H]1CC/C(COC(=O)c1ccc3ccccc3c1)=C\CC[C@@]1(C)O[C@@H]21`, the GI50 is 1.59 µM with A549 NSCLC; 1.36 µM with COLO 205 colon; 1.63 µM in the assay on EKVX NSCLC; 1.74 µM in the assay with MALME-3M melanoma; 0.457 µM in the assay on MCF7 breast; 0.503 µM in the assay on MOLT-4 leukemia. The GI50 is 2.32 µM with NCI/ADR-RES ovarian, 3.51 µM in the assay with SK-OV-3 ovarian, 1.22 µM in the assay with UACC-62 melanoma and 0.859 µM in the assay on UO-31 renal. Also, the TGI amounted to 3.43 µM with A549 NSCLC; 2.94 µM in the assay with COLO 205 colon; 3.63 µM in the assay with EKVX NSCLC; 3.47 µM in the assay with MALME-3M melanoma; 2.52 µM in the assay on MCF7 breast; 3.47 µM in the assay on MOLT-4 leukemia. The TGI with NCI/ADR-RES ovarian is 10.2 µM; in the assay on SK-OV-3 ovarian, 10.8 µM; in the assay with UACC-62 melanoma it was 2.53 µM; with UO-31 renal, 2.11 µM.
Take `O=c1[nH]ncc(Br)c1Br`: the GI50 with A549 NSCLC is 13.3 µM; with COLO 205 colon it was 1.91 µM; with EKVX NSCLC, 2.87 µM; in the assay on MALME-3M melanoma it was 1.81 µM; with MCF7 breast, 2 µM; in the assay with MOLT-4 leukemia it was 2.41 µM. For the same molecule, the GI50 was 2.91 µM with NCI/ADR-RES ovarian, 13.9 µM in the assay with SK-OV-3 ovarian, 1.27 µM in the assay on UACC-62 melanoma and 1.87 µM in the assay on UO-31 renal. For the same molecule, the TGI worked out at 29.1 µM in the assay on A549 NSCLC; 3.32 µM in the assay on COLO 205 colon; 13.1 µM with EKVX NSCLC; 3.71 µM in the assay on MALME-3M melanoma; 11 µM with MCF7 breast; 5.19 µM with MOLT-4 leukemia. Besides, the TGI with NCI/ADR-RES ovarian is 7.69 µM; in the assay on SK-OV-3 ovarian, 26.8 µM; in the assay with UACC-62 melanoma it was 2.58 µM; in the assay with UO-31 renal, 4.51 µM.
On to `O=C1c2cc(Cl)ccc2S(=O)(=O)c2c(NCCCNCCO)nc3ccccc3c21`, for which the GI50 in the assay on A549 NSCLC was 3.22 µM; with COLO 205 colon, 1.01 µM; with EKVX NSCLC it was 1.66 µM; with MALME-3M melanoma, 1.19 µM; with MCF7 breast, 1.52 µM; in the assay with MOLT-4 leukemia, 1.82 µM. Also, the GI50 was 3.05 µM in the assay on NCI/ADR-RES ovarian, 8.54 µM in the assay on SK-OV-3 ovarian, 1.61 µM in the assay with UACC-62 melanoma and 1.13 µM in the assay on UO-31 renal. The TGI in the assay on A549 NSCLC stood at 12.3 µM; in the assay with COLO 205 colon it was 2.35 µM; in the assay with EKVX NSCLC it was 4.83 µM; with MALME-3M melanoma, 2.56 µM; in the assay on MCF7 breast, 3.71 µM; in the assay with MOLT-4 leukemia it was 5.63 µM. For the same molecule, the TGI was 10.8 µM with NCI/ADR-RES ovarian, 20.9 µM in the assay with SK-OV-3 ovarian, 3.35 µM in the assay with UACC-62 melanoma and 2.36 µM with UO-31 renal.
On to `CC(C)(C)OC(=O)N1CCc2c(sc3ncnc(N/N=C/c4cccc5ccccc45)c23)C1`, for which the GI50 was 3.64 µM with A549 NSCLC; 2.79 µM in the assay on COLO 205 colon; 3.64 µM in the assay on EKVX NSCLC; 3.97 µM in the assay on MALME-3M melanoma; 3.14 µM in the assay with MCF7 breast; 3.25 µM in the assay on MOLT-4 leukemia. Besides, the GI50 is 3.74 µM in the assay with NCI/ADR-RES ovarian, 4 µM with SK-OV-3 ovarian, 2.65 µM with UACC-62 melanoma and 2.68 µM with UO-31 renal. The TGI was above 100 µM in the assay with A549 NSCLC; 40.8 µM with COLO 205 colon; above 100 µM in the assay with EKVX NSCLC; 36.3 µM in the assay with MALME-3M melanoma; above 100 µM in the assay with MCF7 breast; 16.9 µM in the assay with MOLT-4 leukemia. Moreover, the TGI with NCI/ADR-RES ovarian was 43.8 µM; in the assay with SK-OV-3 ovarian, above 100 µM; with UACC-62 melanoma, 10.2 µM; in the assay on UO-31 renal it was 14.9 µM.
